Source: patent US11149040B2, “Fused triazole agonists of the APJ receptor” (AMGEN INC., priority 2017, dated 2021)

target: human APJ receptor (Homo sapiens (Human), UniProt P35414); test: [35S]GTPγS binding assay on membranes from CHO cells stably expressing human APJ receptor; assay type: biochemical; settings: read-out: Activity hAPJ SPA EC50 IP
Procedure: [^35S]GTPγS Binding The human APJ receptor was cloned by polymerase chain reaction and the gene encoding the receptor was subcloned in pFLAG-CMV™-3 expression vector (Sigma, Saint Louis, Mo. USA) in-house at Amgen. A GTPγS binding assay was performed on membranes prepared from CHO cells stably expressing human APJ receptor. The optimum experimental conditions for the concentrations of GDP, MgCl2, and NaCl in the assay buffer were initially determined. […] Incubation was at RT for 90 min and the microplate was read using a ViewLux™ ultra HTS Microplate Imager (PerkinElmer, Inc.). All the results presented are means of several independent experiments and analyzed by non-linear regression methods using the commercially available program Prism (GraphPad, San Diego, Calif.) providing the EC50 values detailed in Table 13.

Sequence of human APJ receptor (P35414 whole entry): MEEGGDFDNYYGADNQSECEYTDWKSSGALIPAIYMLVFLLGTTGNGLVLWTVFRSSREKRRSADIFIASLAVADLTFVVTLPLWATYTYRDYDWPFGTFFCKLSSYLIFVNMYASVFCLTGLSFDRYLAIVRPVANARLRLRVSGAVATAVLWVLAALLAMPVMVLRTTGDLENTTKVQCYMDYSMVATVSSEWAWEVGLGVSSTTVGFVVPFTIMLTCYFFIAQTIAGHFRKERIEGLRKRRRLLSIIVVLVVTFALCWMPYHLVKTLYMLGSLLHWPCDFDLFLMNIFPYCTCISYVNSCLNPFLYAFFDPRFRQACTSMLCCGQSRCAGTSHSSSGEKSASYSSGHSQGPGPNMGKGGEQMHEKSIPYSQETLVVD

Structure (SMILES) | EC50 [nM]
COC[C@@H]1COc2ncccc2-c2nnc(NS(=O)(=O)[C@@H](C)[C@H](OC(C)C)c3ncc(C)cn3)n21 (mixture of isomers) [Example 59.0, (1R,2S)-N-((5R)-5-(methoxymethyl)-5,6-dihydropyrido[3,2-f][1,2,4]triazolo[4,3-d][1,4]oxazepin-3-yl)-1-(5-methyl-2-pyrimidinyl)-1-(2-propanyloxy)-2-propanesulfonamide and (1R,2S)-N-((5S)-5-(methoxymethyl)-5,6-dihydropyrido[3,2-f][1,2,4]triazolo[4,3-d][1,4]oxazepin-3-yl)-1-(5-methyl-2-pyrimidinyl)-1-(2-propanyloxy)-2-propanesulfonamide] | 1200
COC[C@@H]1COc2cccnc2-c2nnc(NS(=O)(=O)[C@@H](C)[C@@H](OC(C)C)c3ncc(C)cn3)n21 (mixture of isomers) [Example 61.0, (1S,2S)-N-((5R)-5-(methoxymethyl)-5,6-dihydropyrido[2,3-f][1,2,4]triazolo[4,3-d][1,4]oxazepin-3-yl)-1-(5-methyl-2-pyrimidinyl)-1-(2-propanyloxy)-2-propanesulfonamide and (1S,2S)-N-((5S)-5-(methoxymethyl)-5,6-dihydropyrido[2,3-f][1,2,4]triazolo[4,3-d][1,4]oxazepin-3-yl)-1-(5-methyl-2-pyrimidinyl)-1-(2-propanyloxy)-2-propanesulfonamide] | 440
Cc1cnc([C@H](OC(C)C)[C@H](C)S(=O)(=O)Nc2nnc3n2[C@H](COC(C)C)COc2ccc(F)cc2-3)nc1 (mixture of isomers) [Example 62.0, (1S,2S)-N-((R)-10-fluoro-5-(isopropoxymethyl)-5,6-dihydrobenzo[f][1,2,4]triazolo[4,3-d][1,4]oxazepin-3-yl)-1-isopropoxy-1-(5-methylpyrimidin-2-yl)propane-2-sulfonamide and (1S,2S)-N-((S)-10-fluoro-5-(isopropoxymethyl)-5,6-dihydrobenzo[f][1,2,4]triazolo[4,3-d][1,4]oxazepin-3-yl)-1-isopropoxy-1-(5-methylpyrimidin-2-yl)propane-2-sulfonamide] | 21
COC[C@@H]1COc2cnccc2-c2nnc(NS(=O)(=O)[C@@H](C)[C@@H](OC(C)C)c3ncc(C)cn3)n21 (mixture of isomers) [Example 65.0, (1S,2S)-N-((5R)-5-(methoxymethyl)-5,6-dihydropyrido[4,3-f][1,2,4]triazolo[4,3-d][1,4]oxazepin-3-yl)-1-(5-methyl-2-pyrimidinyl)-1-(2-propanyloxy)-2-propanesulfonamide and (1S,2S)-N-((5S)-5-(methoxymethyl)-5,6-dihydropyrido[4,3-f][1,2,4]triazolo[4,3-d][1,4]oxazepin-3-yl)-1-(5-methyl-2-pyrimidinyl)-1-(2-propanyloxy)-2-propanesulfonamide] | 1200
COC[C@@H]1COc2ccccc2-c2nnc(NS(=O)(=O)[C@@H](C)[C@H](C)c3ncc(OC)cn3)n21 (single isomer, unassigned) [Example 1.0, (2S,3R)-N-((5R)-5-(methoxymethyl)-5,6-dihydro[1,2,4]triazolo[4,3-d][1,4]benzoxazepin-3-yl)-3-(5-methoxy-2-pyrimidinyl)-2-butanesulfonamide or (2S,3R)-N-((5S)-5-(methoxymethyl)-5,6-dihydro[1,2,4]triazolo[4,3-d][1,4]benzoxazepin-3-yl)-3-(5-methoxy-2-pyrimidinyl)-2-butanesulfonamide] | 120
COC[C@@H]1COc2ccccc2-c2nnc(NS(=O)(=O)[C@@H](C)[C@H](C)c3ncc(OC)cn3)n21 (single isomer, unassigned) [Example 2.0, (2S,3R)-N-((5R)-5-(methoxymethyl)-5,6-dihydro[1,2,4]triazolo[4,3-d][1,4]benzoxazepin-3-yl)-3-(5-methoxy-2-pyrimidinyl)-2-butanesulfonamide or (2S,3R)-N-((5S)-5-(methoxymethyl)-5,6-dihydro[1,2,4]triazolo[4,3-d][1,4]benzoxazepin-3-yl)-3-(5-methoxy-2-pyrimidinyl)-2-butanesulfonamide] | 770
COC[C@@H]1COc2ccccc2-c2nnc(NS(=O)(=O)[C@@H](C)[C@@H](OC(C)C)c3ncc(C)cn3)n21 (single isomer, unassigned) [Example 4.0, (1S,2S)-N-((5R)-5-(methoxymethyl)-5,6-dihydro[1,2,4]triazolo[4,3-d][1,4]benzoxazepin-3-yl)-1-(5-methyl-2-pyrimidinyl)-1-(2-propanyloxy)-2-propanesulfonamide or (1S,2S)-N-((5S)-5-(methoxymethyl)-5,6-dihydro[1,2,4]triazolo[4,3-d][1,4]benzoxazepin-3-yl)-1-(5-methyl-2-pyrimidinyl)-1-(2-propanyloxy)-2-propanesulfonamide] | 17
COC[C@@H]1COc2ccccc2-c2nnc(NS(=O)(=O)[C@@H](C)[C@@H](OC(C)C)c3ncc(C)cn3)n21 (single isomer, unassigned) [Example 5.0, (1S,2S)-N-((5R)-5-(methoxymethyl)-5,6-dihydro[1,2,4]triazolo[4,3-d][1,4]benzoxazepin-3-yl)-1-(5-methyl-2-pyrimidinyl)-1-(2-propanyloxy)-2-propanesulfonamide or (1S,2S)-N-((5S)-5-(methoxymethyl)-5,6-dihydro[1,2,4]triazolo[4,3-d][1,4]benzoxazepin-3-yl)-1-(5-methyl-2-pyrimidinyl)-1-(2-propanyloxy)-2-propanesulfonamide] | 130
COC[C@@H]1COc2ccc(OC)nc2-c2nnc(NS(=O)(=O)[C@@H](C)[C@H](C)c3ncc(OC)cn3)n21 (single isomer, unassigned) [Example 6.0, (2S,3R)-N-((5R)-10-methoxy-5-(methoxymethyl)-5,6-dihydropyrido[2,3-f][1,2,4]triazolo[4,3-d][1,4]oxazepin-3-yl)-3-(5-methoxy-2-pyrimidinyl)-2-butanesulfonamide or (2S,3R)-N-((5S)-10-methoxy-5-(methoxymethyl)-5,6-dihydropyrido[2,3-f][1,2,4]triazolo[4,3-d][1,4]oxazepin-3-yl)-3-(5-methoxy-2-pyrimidinyl)-2-butanesulfonamide] | 2300
COC[C@@H]1COc2ccc(OC)nc2-c2nnc(NS(=O)(=O)[C@@H](C)[C@H](C)c3ncc(OC)cn3)n21 (single isomer, unassigned) [Example 7.0, (2S,3R)-N-((5R)-10-methoxy-5-(methoxymethyl)-5,6-dihydropyrido[2,3-f][1,2,4]triazolo[4,3-d][1,4]oxazepin-3-yl)-3-(5-methoxy-2-pyrimidinyl)-2-butanesulfonamide or (2S,3R)-N-((5S)-10-methoxy-5-(methoxymethyl)-5,6-dihydropyrido[2,3-f][1,2,4]traizolo[4,3-d][1,4]oxazepin-3-yl)-3-(5-methoxy-2-pyrimidinyl)-2-butanesulfonamide] | 250
COC[C@@H]1COc2c(OC)cccc2-c2nnc(NS(=O)(=O)[C@@H](C)[C@H](C)c3ncc(OC)cn3)n21 (single isomer, unassigned) [Example 8.0, (2S,3R)-N-((5R)-8-methoxy-5-(methoxymethyl)-5,6-dihydro[1,2,4]triazolo[4,3-d][1,4]benzoxazepin-3-yl)-3-(5-methoxy-2-pyrimidinyl)-2-butanesulfonamide or (2S,3R)-N-((5S)-8-methoxy-5-(methoxymethyl)-5,6-dihydro[1,2,4]triazolo[4,3-d][1,4]benzoxazepin-3-yl)-3-(5-methoxy-2-pyrimidinyl)-2-butanesulfonamide] | 270
COC[C@@H]1COc2c(OC)cccc2-c2nnc(NS(=O)(=O)[C@@H](C)[C@H](C)c3ncc(OC)cn3)n21 (single isomer, unassigned) [Example 9.0, (2S,3R)-N-((5R)-8-methoxy-5-(methoxymethyl)-5,6-dihydro[1,2,4]triazolo[4,3-d][1,4]benzoxazepin-3-yl)-3-(5-methoxy-2-pyrimidinyl)-2-butanesulfonamide or (2S,3R)-N-((5S)-8-methoxy-5-(methoxymethyl)-5,6-dihydro[1,2,4]triazolo[4,3-d][1,4]benzoxazepin-3-yl)-3-(5-methoxy-2-pyrimidinyl)-2-butanesulfonamide] | 1600
COC[C@@H]1COc2ccc(OC)nc2-c2nnc(NS(=O)(=O)[C@@H](C)[C@H](C)c3ncc(C)cn3)n21 (single isomer, unassigned) [Example 12.0, (2S,3R)-N-((5R)-10-methoxy-5-(methoxymethyl)-5,6-dihydropyrido[2,3-f][1,2,4]triazolo[4,3-d][1,4]oxazepin-3-yl)-3-(5-methyl-2-pyrimidinyl)-2-butanesulfonamide or (2S,3R)-N-((5S)-10-methoxy-5-(methoxymethyl)-5,6-dihydropyrido[2,3-f][1,2,4]triazolo[4,3-d][1,4]oxazepin-3-yl)-3-(5-methyl-2-pyrimidinyl)-2-butanesulfonamide] | 1200
COC[C@@H]1COc2ccc(OC)nc2-c2nnc(NS(=O)(=O)[C@@H](C)[C@H](C)c3ncc(C)cn3)n21 (single isomer, unassigned) [Example 13.0, (2S,3R)-N-((5R)-10-methoxy-5-(methoxymethyl)-5,6-dihydropyrido[2,3-f][1,2,4]triazolo[4,3-d][1,4]oxazepin-3-yl)-3-(5-methyl-2-pyrimidinyl)-2-butanesulfonamide or (2S,3R)-N-((5S)-10-methoxy-5-(methoxymethyl)-5,6-dihydropyrido[2,3-f][1,2,4]traizolo[4,3-d][1,4]oxazepin-3-yl)-3-(5-methyl-2-pyrimidinyl)-2-butanesulfonamide] | 370
